Source: US12264156B2, “Compounds and pharmaceutical compositions thereof for the treatment of diseases” (GALAPAGOS NV, priority 2018, dated 2025)

Experiments:
[1] = tested on: IL-23 induced psoriatic-like epidermal hyperplasia; assay: Murine model of psoriatic-like epidermal hyperplasia induced by intradermal injections of IL-23; format: in vivo, mouse; conditions: 10 mg/kg p.o. b.i.d.
Method: Mouse recombinant IL-23, carrier free (Cat #14-8231) is provided by e-Bioscience (Frankfurt, Germany).
Balb/c mice (female, 18-20 g body weight) were obtained from Janvier Labs (Le Genest-Saint-Isle, France). Mice are kept on a 12 h light/dark cycle. Temperature was maintained at 22° C., food and water are provided ad libitum.
The design of the study was adapted from Rizzo H L. et al. (Rizzo et al. 2011). On the first day (D1), the mice were shaved around the two ears. For 4 consecutive days (D1 to D4), the mice received a daily intradermal dose of mouse recombinant IL-23 (1 μg/20 μL in PBS/0.1% BSA) in the right pinna ear and 20 μL of PBS/0.1% BSA in the left pinna ear under anesthesia.
From D1 to D5, mice were dosed with test-compound or with vehicle, 1 h prior IL-23 injection.
The thickness of both ears was measured daily with an automatic caliper. Body weight was assessed at initiation and at sacrifice. On fifth day, 2 h after the last dosing, the mice were sacrificed. The pinnae of the ear were cut, excluding cartilage. The pinnae, placed in a vial containing 1 mL of RNAlater® solution.
There were 8 mice per group. The results were expressed as mean±SEM and statistical analysis was performed using one-way ANOVA followed by Dunnett's post-hoc test versus IL-23 vehicle groups.

mouse CAIA model = assay: Murine collagen-antibody induced arthritis model (CAIA); format: in vivo; conditions: 60 mg/kg p.o. b.i.d.
Method: ArthritoMabrm antibody cocktail for inducing arthritis and lipopolysaccharide (LPS) from Escherichia Coli serotype O55:B5 were purchased from MD Biosciences (OakdalMNnn., USA, Cat #CIA-MAB-50); PBS 1× (GIBCO, Cat #140190-086) was obtained from ThermoFisher Scientific, and Enbrel® (etanercept) was purchased from Chondrex (L'Isle d'Abeau, France, Cat #3771910).
Five to seven week old BALBc female mice were obtained from Janvier Labs (Le Genest-Saint-Isle, France). Mice were kept on a 12 h light/dark cycle. Temperature was maintained at 22° C., food and water were provided ad libitum.
The therapeutic effects of the compounds of the invention were tested in the mouse CAIA model (MD Biosciences 2008; Nandakumar et al. 2003). At day 1 (D1), mice were randomly divided into equal groups containing 10 mice. […] Bodyweight and clinical score of each mouse was assessed every day except the weekend until the end of the study. […] For histology readouts, right and left hind paws were individually collected in vials (25 mL minimum) filled with 4% buffered formaldehyde for a minimum of 24 h to a maximum of 4 days at RT.
Arthritis was scored according to the method of Khachigian 2006; Lin et al 2007 and Nishida et al. 2004 (Khachigian 2006; Lin et al. 2007; Nishida et al. 2004). […]

COc1cc(-c2cnc3cc(OCCN4CCOCC4)ccn23)cc2c1C(=O)N(CC(F)(F)F)CC2 [Cpd 88, 8-methoxy-6-[7-(2-morpholinoethoxy)imidazo [1,2-a]pyridin-3-yl]-2-(2,2,2-trifluoroethyl)-3,4-dihydroisoquinolin-1-one]
ear thickness compared to IL-23 vehicle group [1]: statistically significant decrease of the ear thickness | Area Under the Curve (AUC) of clinical score vs. vehicle group (mouse CAIA model): statistically significant reduction of Area Under the Curve (AUC) of clinical score
